Columns and labels:
Type in all cases: cell-based, human
[1] = system: Immortalized fibroblasts from a CMD patient; experiment: Laminin binding, immortalized fibroblasts from a CMD patient (FIG. 5); conditions: dose response curve
Protocol: FIG. 5. […] A dose response curve for Givinostat was prepared measuring laminin staining intensity at various concentrations of the compound. Laminin was labeled with rabbit anti-laminin antibodies. Nuclei are stained with DAPI. Fibroblasts obtained from a muscular dystrophy patient were seeded at 3000 cells per well in 384-well plates and treated in duplicate at 10 μm with individual compounds from the drug/nutraceutical library. After 48 hours in culture conditions, the cells were exposed to serum free media containing 0.1% BSA and 10 ug/ml laminin from Engelbreth-Holm-Swarm murine sarcoma basement membrane for a period of 2 hours. Cells were then fixed with 4% paraformaldehyde and stained with DAPI and a laminin-specific antibody, followed by a fluorescently labeled secondary antibody directed against the laminin specific antibody. The plates were then scanned using an Opera high content confocal microscopy screening system (PerkinElmer) at 20× magnification with separate fluorescent exposures, utilizing a UV light source and a 561 nm laser. Image analysis was performed to quantify levels of laminin staining using a customized algorithm written with Acapella software (Perkin Elmer). The cytoplasm was defined using DAPI staining as a mask, and the average cytoplasmic intensity of fluorescence per cell was calculated on the basis of at least six random fields captured per well.

[2] = system: Fibroblasts obtained from a muscular dystrophy patient; experiment: Laminin binding assay (high content screen) in fibroblasts from a muscular dystrophy patient; conditions: for hit in the laminin binding screen (normalizes fibroblast laminin binding; at least 20% activity compared with controls): 10 μm, duplicate, 48 hours, 384-well plates, anti-laminin staining
Protocol: (§1) Fibroblasts obtained from a muscular dystrophy patient were seeded at 3000 cells per well in 384-well plates and treated in duplicate at 10 μm with individual compounds from the drug/nutraceutical library. After 48 hours in culture conditions, the cells were exposed to serum free media containing 0.1% BSA and 10 ug/ml laminin from Engelbreth-Holm-Swarm murine sarcoma basement membrane for a period of 2 hours. Cells were then fixed with 4% paraformaldehyde and stained with DAPI and a laminin-specific antibody, followed by a fluorescently labeled secondary antibody directed against the laminin specific antibody. The plates were then scanned using an Opera high content confocal microscopy screening system (PerkinElmer) at 20× magnification with separate fluorescent exposures, utilizing a UV light source and a 561 nm laser.
(§2) Image analysis was performed to quantify levels of laminin staining using a customized algorithm written with Acapella software (Perkin Elmer). The cytoplasm was defined using DAPI staining as a mask, and the average cytoplasmic intensity of fluorescence per cell was calculated on the basis of at least six random fields captured per well.
A compound in the drug/nutraceutical library was considered to normalize the level of fibroblast laminin binding if the compound scored at least 20% activity compared with controls. Fibroblasts from a healthy individual, or from patient cells treated with Trichostatin A at 2 uM were used as positive controls.
Trichostatin A, SAHA, and Givinostat (another HDAC inhibitor in the same class as Trichostatin A and SAHA) were further tested in an eight-point dose-response assay (at a range of 20-0.02 μm, at three fold dilutions) in triplicate.

[3] = system: fibroblasts from the CMD-FKRP patient; experiment: Laminin binding, fibroblasts from FKRP deficient patients (FIG. 6, FIG. 9)
Source text: FIG. 6. Fibroblasts were obtained from CMD patients with either low (CMD-FKRP) laminin binding, mid-range laminin binding (LGMD/CMD-FKRP), or closer to normal (LGMD-FKRP) laminin binding. […] Laminin was labeled with rabbit anti-laminin antibodies. Nuclei are stained with DAPI.
(§3) FIG. 9. Fibroblasts were taken from an FKRP deficient CMD patient and a POMT1 deficient CMD patient. […] Laminin is labeled with rabbit anti-laminin antibodies. Nuclei are stained with DAPI.
Fibroblasts obtained from a muscular dystrophy patient were seeded at 3000 cells per well in 384-well plates and treated in duplicate at 10 μm with individual compounds from the drug/nutraceutical library. After 48 hours in culture conditions, the cells were exposed to serum free media containing 0.1% BSA and 10 ug/ml laminin from Engelbreth-Holm-Swarm murine sarcoma basement membrane for a period of 2 hours. […]
as §2

[4] = system: fibroblasts from the CMD-POMT1 patient; experiment: Laminin binding, fibroblasts from a POMT1 deficient CMD patient (FIG. 9)
Protocol: as §3, §1, §2

| hit in the laminin binding screen (normalizes fibroblast laminin binding; at least 20% activity compared with controls) [2] | laminin binding ([3]; fibroblasts from the CMD-FKRP patient, FIG. 9) | laminin binding ([3]; fibroblasts with low (CMD-FKRP), mid-range (LGMD/CMD-FKRP) or closer to normal (LGMD-FKRP) laminin binding, FIG. 6) | SMILES | levels of laminin binding (laminin staining intensity) [1] | laminin binding of patient's fibroblasts after treatment ([2]; fibroblasts from a CMD-affected patient, compared with unaffected sibling, rabbit anti-laminin antibodies, FIG. 4) | laminin binding [4] |
| --- | --- | --- | --- | --- | --- | --- |
|  |  |  | CCN(CC)Cc1ccc2cc(COC(=O)Nc3ccc(C(=O)NO)cc3)ccc2c1 [Givinostat] | increased levels of laminin binding |  |  |
| identified as hits |  |  | O=C(CCCCCCC(=O)Nc1ccccc1)NO [SAHA] |  | normalized to the levels of the patient's unaffected sibling |  |
| identified as hits | increased laminin binding | increased laminin binding | CC(/C=C/C(=O)NO)=C\[C@@H](C)C(=O)c1ccc(N(C)C)cc1 [Trichostatin A] |  |  | did not result in visibly increased laminin binding |

Reference: US10161929B2, “Theranostics platform and methods of use” (Sanford Burnham Prebys Medical Discovery Institute, priority 2012, dated 2018)
